# Patent US8609410B2 (priority 2005, dated 2013)
# Columns and labels:
# Format in all cases: cell-based, human
# BMLF1-specific CD8+ CTLs = assay: Induction of BMLF1-specific CD8+ CTLs by dendritic cells co-pulsed with ZOMETA and BMLF1; details: for The number of CTLs / The total number of cells / Ratio of CTLs (%): BMLF1 2 μg/ml; for Ratio of CTLs (%): immature dendritic cells, 7 days
# Method: (§1) As a negative control, dendritic cells that were cultured without adding ZOMETA™ or the antigenic peptides were used.
# After about 12 hours of the culture, part of the activated dendritic cells that were co-pulsed with ZOMETA™ and the antigenic peptides were collected, placed in a 15 ml tube (BD Falcon) and centrifuged at 1500 rpm for 5 minutes. The resultant dendritic cells in the form of pellets were suspended in 10 ml of an AIM-V medium supplemented with 10% FBS and centrifuged at 1500 rpm for 5 minutes, followed by washing. The washing operation was repeated twice. The dendritic cells collected in this manner were used as stimulating cells. In other words, the activated dendritic cells that were co-pulsed with bisphosphonate and the disease antigenic peptides, the dendritic cells that were pulsed with either of them and the dendritic cells that were not pulsed with any of them were used as stimulating cells. Cells prepared by suspending those (a CD14-negative cell population, which was mainly a T cell population) remaining after isolation of the CD14-positive cells for preparing the dendritic cells in an AIM-V medium supplemented with 10% FBS and 10% dimethyl sulfoxide (DMSO), and freeze-preserving them were thawed, washed and used as responding cells. 1×10^5 each of the obtained stimulating cells (dendritic cells) were cultured with 1×10^6 responding cells such that the total amount was 1 ml in a 48-well plate (CORNING) (responding cells:dendritic cells=10:1). The co-culture was carried out at about 37° C. under a condition of 5% CO2 for 7 days. […] In the case where the cells were proliferated rapidly, 1 ml of an AIM-V medium supplemented with 40 U/ml of IL-2 and 10% FBS was added on day 4 to day 6.
# After dyeing in a shielded state at room temperature for 15 minutes, an anti-CD8 antibody that was labeled with FITC (BD Pharmingen) was added, followed by dyeing in a shielded state at 4° C. for 15 minutes. As a control, an isotype of each of the antibodies was used. The cells were measured using EPICS XL.MCL, and the results of measurement were analyzed using EPICS 32.
# A27L-specific CD8+ CTLs [1] = assay: Induction of A27L-specific CD8+ CTLs by washed pulsed immature dendritic cells co-cultured with lymphocytes (tetramer flow cytometry)
# Method: as §1
# After about 12 hours of culture, part of the activated dendritic cells that were co-pulsed with ZOMETA™ and the antigenic peptides were collected, placed in a 15 ml tube (BD Falcon) and centrifuged at 1500 rpm for 5 minutes. The resultant dendritic cells in the form of pellets were suspended in 10 ml of an AIM-V medium supplemented with 10% FBS and centrifuged at 1500 rpm for 5 minutes, followed by washing. The washing operation was repeated twice. The dendritic cells collected in this manner were used as stimulating cells. In other words, the activated dendritic cells that were co-pulsed with bisphosphonate and the disease antigenic peptides, the dendritic cells that were pulsed with either of them and the dendritic cells that were not pulsed with any of them were used as stimulating cells. […]
# After dyeing in a shielded state at room temperature for 15 minutes, an anti-CD8 antibody that was labeled with FITC (BD Pharmingen) was added, followed by dyeing in a shielded state at 4° C. for 15 minutes. […] The cells were measured using EPICS XL.MCL, and the results of measurement were analyzed using EPICS 32.
# A27L-specific CD8+ CTLs [2] = assay: Induction of A27L-specific CD8+ CTLs by artificial antigen-presenting cells MDA-MB/CD80 co-pulsed with ZOMETA and A27L; details: co-pulse 0.01 μM or 1 μM ZOMETA and 2 μg/ml A27L
# Method: A human CD80 gene, which was a co-stimulatory molecule, was transfected by a lipofection method in a breast cancer-derived cell line: MDA-MB-231 (class I antigen HLA-A*0201) expressing MHC class I molecules, thus establishing a cell line MDA-MB/CD80 expressing human CD80 stably and constantly in MDA-MB-231 cells.
# As a negative control, MDA-MB/CD80 cells that were cultured without adding ZOMETA™ or the antigenic peptides were used.
# After about 12 hours of culture, part of the activated MDA-MB/CD80 cells that were co-pulsed with ZOMETA™ and the antigenic peptides were collected, placed in a 15 ml tube (BD Falcon) and centrifuged at 1500 rpm for 5 minutes. The resultant MDA-MB/CD80 cells in the form of pellets were suspended in 10 ml of an AIM-V medium supplemented with 10% FBS and centrifuged at 1500 rpm for 5 minutes, followed by washing. The washing operation was repeated twice. The MDA-MB/CD80 cells collected in this manner were used as stimulating cells. In other words, the activated MDA-MB/CD80 cells that were co-pulsed with bisphosphonate and the disease antigenic peptides, the MDA-MB/CD80 cells that were pulsed with either of them and the MDA-MB/CD80 cells that were not pulsed with any of them were used as stimulating cells. […]
# IFN-γ producing cells = assay: IFN-γ ELISPot of co-cultured immunocytes
# Method: 70% ethanol was added to each well of MultiScreen plate (MILLIPORE) and removed within 2 minutes. Each well of the above-noted plate was washed five times in 200 μl of PBS. […] This plate was left overnight at 4° C. This plate was washed four times in 200 μl/well of PBS. Then, 200 μl of an AIM-V medium supplemented with 10% FBS was added in each well, followed by blocking at room temperature for at least 30 minutes. The blocking medium was removed, and the plate was washed four times in 200 μl/well of PBS. A co-cultured cell population in each condition obtained by a method similar to the above-described co-culture was collected by centrifugation and washed twice in AIM-V.
# The number of cells indicates the number per well of an assay plate. […] The culture volume was adjusted to be 100 μl per well. For each culture condition, 300 μl of culture, which corresponds to 3 wells, was performed. 100 μl per well of the cells pre-cultured under each condition was added into 3 wells in the plate that had been washed in PBS after blocking, and cultured overnight at 37° C. under a condition of 5% CO2. The cultured cells were removed from the wells and washed five times in 200 μl/well of PBS. […] The plate was allowed to stand still at room temperature for 2 hours. This plate was washed five times in 200 μl/well of PBS. Streptavidin to which alkaline phosphatase was bound (MABTECH ELISPot™ for Human Interferon-γ kit) was diluted with PBS supplemented with 0.5% FBS so that 1:1000, and 100 μl thereof per well was added. The plate was left at room temperature for 1 hour. This plate was washed five times in 200 μl/well of PBS. Then, 100 μl of BCIP/NBTplus substrate solution (Wako) was added per well, which was left in a dark place until spots became visible. When the spots became visible to the naked eye, the plate was washed sufficiently in distilled water. After checking that a membrane in the plate is dry, the number of spots were measured using ELISPot™ reader (AID Autoimmun Diagnostika GmbH), and the data were analyzed with AID software version 3.1 (AID).
# [3] = tested on: A27L antigen-specific CD8+ CTLs; assay: Induction of A27L-specific CD8+ CTLs by dendritic cells co-pulsed with ZOMETA and apoptotic melanoma cells
# Method: From a healthy donor, 200 ml of peripheral blood was collected. Mononuclear cells were obtained from this peripheral blood of the healthy donor. At this time, a mononuclear cell layer was collected using a density gradient solution for blood cell separation. After several times of washing in order to remove platelets, etc. from the collected cells, CD14-positive cells were isolated as monocytes with MACS. From the obtained dendritic cell precursors, differentiation induction of dendritic cells was carried out. The medium was prepared by adding 500 U/ml of GM-CSF (IMMUNEX) and 500 U/ml of IL-4 (Osteogenetics GmbH) to AIM-V supplemented with 10% FBS. On day 5 to day 7 after starting culture, immature dendritic cells were obtained.
# A cancer cell line derived from MART-1-positive melanoma was collected, placed in a 15 ml tube (BD Falcon) and centrifuged at 1500 rpm for 5 minutes. […]
# Using the number of all lymphocytes that were proliferated 7, 11 and 14 days after the start of co-culture, a labeled antibody and an antigen-specific tetramer, the ratio of the antigen-specific CD8+ CTLs in all of the lymphocytes was measured with a flow cytometer. […] The cells were measured using EPICS XL.MCL, and the results of measurement were analyzed using EPICS 32.
compound,measurement,setting,value
"O=P(O)(O)C(O)(Cn1ccnc1)P(=O)(O)O [ZOMETA ™, zoledronate sodium hydrate]",The number of CTLs,BMLF1-specific CD8+ CTLs; ZOMETA 0.01 μM,10845
same,The total number of cells,BMLF1-specific CD8+ CTLs; ZOMETA 0.01 μM,2.01 × 10^6
same,Ratio of CTLs (%),BMLF1-specific CD8+ CTLs; ZOMETA 0.01 μM,0.54%
same,The number of CTLs,BMLF1-specific CD8+ CTLs; ZOMETA 0.1 μM,12130
same,The total number of cells,BMLF1-specific CD8+ CTLs; ZOMETA 0.1 μM,2.17 × 10^6
same,Ratio of CTLs (%),BMLF1-specific CD8+ CTLs; ZOMETA 0.1 μM,0.56%
same,The number of CTLs,BMLF1-specific CD8+ CTLs; ZOMETA 1 μM,11389
same,The total number of cells,BMLF1-specific CD8+ CTLs; ZOMETA 1 μM,1.96 × 10^6
same,Ratio of CTLs (%),BMLF1-specific CD8+ CTLs; ZOMETA 1 μM,0.58%
same,The number of CTLs,BMLF1-specific CD8+ CTLs; ZOMETA 5 μM,21266
same,The total number of cells,BMLF1-specific CD8+ CTLs; ZOMETA 5 μM,2.84 × 10^6
same,Ratio of CTLs (%),BMLF1-specific CD8+ CTLs; ZOMETA 5 μM,0.75%
same,The number of CTLs,BMLF1-specific CD8+ CTLs; ZOMETA 20 μM,21133
same,The total number of cells,BMLF1-specific CD8+ CTLs; ZOMETA 20 μM,2.94 × 10^6
same,Ratio of CTLs (%),BMLF1-specific CD8+ CTLs; ZOMETA 20 μM,0.72%
same,ratio of antigen-specific CD8+ CTLs versus dendritic cells pulsed with peptides alone,BMLF1-specific CD8+ CTLs; co-pulse ZOMETA 0 to 20 μM and BMLF1,about 3.2 times
same,ratio of antigen-specific CD8+ CTLs versus dendritic cells pulsed with peptides alone,A27L-specific CD8+ CTLs [1]; co-pulse 0.01 μM ZOMETA and 2 μg/ml A27L,about 4 times
same,Ratio (%) of disease antigen-specific CD8+ CTLs,"A27L-specific CD8+ CTLs [1]; immature dendritic cells, ZOMETA 0.01 μM and/or A27L 2 μg/ml, 7 days co-culture",0.00%
same,ratio of antigen-specific CD8+ CTLs versus MDA-MB/CD80 cells pulsed with peptides alone,A27L-specific CD8+ CTLs [2],about 6 times
same,The number of IFN-γ producing cells in all of 2500 lymphocytes,"IFN-γ producing cells; Donor A, Lymphocytes + dendritic cells pulsed with peptides (re-stimulation)",100
same,The number of IFN-γ producing cells in all of 2500 lymphocytes,"IFN-γ producing cells; Donor A, Lymphocytes alone (no re-stimulation)",4
same,The number of IFN-γ producing cells in all of 2500 lymphocytes,"IFN-γ producing cells; Donor B, Lymphocytes + dendritic cells pulsed with peptides (re-stimulation)",50
same,The number of IFN-γ producing cells in all of 2500 lymphocytes,"IFN-γ producing cells; Donor B, Lymphocytes alone (no re-stimulation)",0
same,increase of tetramer-positive cells by the addition of ZOMETA,"[3]; day 11, versus apoptotic cells alone",about 15 times
same,"Ratio of CD8+ CTLs (%), A27L-specific","[3]; day 11 of culture, ZOMETA 0.01 μM, apoptotic MART-1-positive melanoma cells",0.14%
